Results on 13 compounds are retold here after patent US11739098B2 (BRISTOL-MYERS SQUIBB COMPANY, priority 2017, dated 2023).

Molecules are shown by their SMILES.

What all share (format): cell-based
In one test the target is T1, human TLR8 (Homo sapiens, UniProt Q9NR97).
T1 construct: host or cells: HEK-Blue cells (HEK293-derived reporter line)
T1 sequence (Q9NR97 27-1041): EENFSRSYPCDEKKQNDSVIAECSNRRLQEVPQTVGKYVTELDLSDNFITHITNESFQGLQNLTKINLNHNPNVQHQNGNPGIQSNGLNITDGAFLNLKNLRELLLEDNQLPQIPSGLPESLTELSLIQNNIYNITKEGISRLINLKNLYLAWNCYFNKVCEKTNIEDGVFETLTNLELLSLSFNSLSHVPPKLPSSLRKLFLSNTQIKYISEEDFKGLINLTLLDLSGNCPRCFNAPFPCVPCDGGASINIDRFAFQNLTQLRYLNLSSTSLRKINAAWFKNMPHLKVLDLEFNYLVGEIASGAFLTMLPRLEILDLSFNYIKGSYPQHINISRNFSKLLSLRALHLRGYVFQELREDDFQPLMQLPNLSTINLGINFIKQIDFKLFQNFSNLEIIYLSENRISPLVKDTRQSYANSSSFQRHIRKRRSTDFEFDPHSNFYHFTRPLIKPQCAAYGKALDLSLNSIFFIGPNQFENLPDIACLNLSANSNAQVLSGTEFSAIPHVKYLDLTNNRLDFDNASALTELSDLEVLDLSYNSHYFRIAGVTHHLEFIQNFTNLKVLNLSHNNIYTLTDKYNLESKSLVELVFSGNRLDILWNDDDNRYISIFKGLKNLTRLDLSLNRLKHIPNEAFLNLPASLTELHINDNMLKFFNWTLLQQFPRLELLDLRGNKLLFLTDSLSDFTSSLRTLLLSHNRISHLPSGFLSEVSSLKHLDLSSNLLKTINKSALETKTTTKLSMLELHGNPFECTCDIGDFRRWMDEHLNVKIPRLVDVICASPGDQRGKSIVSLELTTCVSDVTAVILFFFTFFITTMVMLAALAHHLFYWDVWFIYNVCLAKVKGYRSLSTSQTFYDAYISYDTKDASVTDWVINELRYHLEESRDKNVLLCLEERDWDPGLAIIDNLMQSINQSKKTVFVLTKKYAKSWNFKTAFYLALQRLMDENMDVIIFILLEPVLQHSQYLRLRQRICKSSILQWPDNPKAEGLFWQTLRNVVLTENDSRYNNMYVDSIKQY
Nature of the test: TLR8 inhibition reporter assay (HEK-Blue cells, SEAP reporter, R848 stimulation). To be noted: HEK-Blue cells overexpressing human TLR8, SEAP reporter, R848 15.9 μM. A digest of the protocol: (§1)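 Cells seeded per well (15000 TLR7, 20,000 TLR8, 25,000 TLR9); compound added over 0.05 nM–50 μM for 30 min at room temperature; agonist added (TLR7 gardiquimod 7.5 μM, TLR8 R848 15.9 μM, TLR9 ODN2006 5 nM); 22 h at 37 °C; SEAP measured; percent inhibition calculated.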
(A reporter such as luciferase makes a cellular process visible.)

The target of the next test is T2, human TLR7 (Homo sapiens, UniProt Q9NYK1).
T2 construct: host or cells: HEK-Blue cells (HEK293-derived reporter line)
T2 sequence (Q9NYK1 27-1049): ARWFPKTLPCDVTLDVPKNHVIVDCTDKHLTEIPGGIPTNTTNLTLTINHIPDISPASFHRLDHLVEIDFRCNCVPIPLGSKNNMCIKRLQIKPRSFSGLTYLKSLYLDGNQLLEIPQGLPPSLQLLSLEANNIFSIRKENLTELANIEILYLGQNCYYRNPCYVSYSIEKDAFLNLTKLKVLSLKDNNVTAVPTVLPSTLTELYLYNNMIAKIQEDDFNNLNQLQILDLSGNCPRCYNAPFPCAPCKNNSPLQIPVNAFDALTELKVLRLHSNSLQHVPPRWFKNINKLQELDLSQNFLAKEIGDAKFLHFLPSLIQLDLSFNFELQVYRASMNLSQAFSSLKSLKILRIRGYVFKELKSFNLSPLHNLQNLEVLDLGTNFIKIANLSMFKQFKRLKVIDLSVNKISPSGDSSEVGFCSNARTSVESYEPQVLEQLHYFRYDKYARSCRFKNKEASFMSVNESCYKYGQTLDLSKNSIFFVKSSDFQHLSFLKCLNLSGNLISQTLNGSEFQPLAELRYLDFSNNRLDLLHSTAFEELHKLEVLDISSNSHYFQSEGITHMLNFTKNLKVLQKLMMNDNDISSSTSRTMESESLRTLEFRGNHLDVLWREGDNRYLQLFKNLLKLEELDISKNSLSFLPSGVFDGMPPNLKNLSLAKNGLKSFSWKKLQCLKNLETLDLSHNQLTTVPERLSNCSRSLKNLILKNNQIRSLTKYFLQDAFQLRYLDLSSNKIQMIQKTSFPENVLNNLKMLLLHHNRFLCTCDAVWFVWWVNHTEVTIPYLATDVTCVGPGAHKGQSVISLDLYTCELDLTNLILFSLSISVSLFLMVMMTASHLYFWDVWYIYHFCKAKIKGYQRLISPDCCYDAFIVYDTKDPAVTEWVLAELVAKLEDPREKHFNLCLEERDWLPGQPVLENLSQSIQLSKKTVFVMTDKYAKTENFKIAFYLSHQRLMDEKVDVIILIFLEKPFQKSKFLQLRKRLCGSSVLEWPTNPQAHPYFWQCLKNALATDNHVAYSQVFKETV
The experiment in a line: TLR7 inhibition reporter assay (HEK-Blue cells, SEAP reporter, gardiquimod stimulation). To be noted: HEK-Blue cells overexpressing human TLR7, SEAP reporter, gardiquimod 7.5 μM. In short, it runs like this:
as §1

In a further test the target is T3, human TLR9 (Homo sapiens, UniProt Q9NR96).
T3 construct: host or cells: HEK-Blue cells (HEK293-derived reporter line)
T3 sequence (Q9NR96 26-1032): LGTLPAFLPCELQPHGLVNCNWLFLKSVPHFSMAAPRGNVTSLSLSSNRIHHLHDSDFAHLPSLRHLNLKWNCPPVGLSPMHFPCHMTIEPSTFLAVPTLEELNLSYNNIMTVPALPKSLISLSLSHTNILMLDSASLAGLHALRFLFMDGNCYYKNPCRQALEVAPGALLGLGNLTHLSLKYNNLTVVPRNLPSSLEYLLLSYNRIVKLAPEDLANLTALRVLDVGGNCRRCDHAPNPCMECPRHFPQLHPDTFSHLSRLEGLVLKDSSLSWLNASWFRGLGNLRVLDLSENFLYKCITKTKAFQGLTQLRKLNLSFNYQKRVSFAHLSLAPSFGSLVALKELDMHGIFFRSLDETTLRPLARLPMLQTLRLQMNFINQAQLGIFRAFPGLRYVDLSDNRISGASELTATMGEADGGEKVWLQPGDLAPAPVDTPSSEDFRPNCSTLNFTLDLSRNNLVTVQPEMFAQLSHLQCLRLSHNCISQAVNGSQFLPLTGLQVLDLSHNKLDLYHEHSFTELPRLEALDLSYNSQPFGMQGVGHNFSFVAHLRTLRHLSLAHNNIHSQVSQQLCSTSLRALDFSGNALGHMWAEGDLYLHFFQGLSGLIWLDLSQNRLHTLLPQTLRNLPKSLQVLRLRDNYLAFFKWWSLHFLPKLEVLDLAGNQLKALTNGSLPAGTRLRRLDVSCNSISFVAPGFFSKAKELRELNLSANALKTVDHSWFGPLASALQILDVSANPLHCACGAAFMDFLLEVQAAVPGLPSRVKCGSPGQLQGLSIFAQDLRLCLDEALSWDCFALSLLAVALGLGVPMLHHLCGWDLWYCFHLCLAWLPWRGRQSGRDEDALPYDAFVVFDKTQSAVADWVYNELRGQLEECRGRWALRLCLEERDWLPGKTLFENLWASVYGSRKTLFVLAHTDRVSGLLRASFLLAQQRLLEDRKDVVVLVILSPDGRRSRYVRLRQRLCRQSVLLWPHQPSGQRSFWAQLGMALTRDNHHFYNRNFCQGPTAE
The experiment in a line: TLR9 inhibition reporter assay (HEK-Blue cells, SEAP reporter, ODN2006 stimulation). To be noted: HEK-Blue cells overexpressing human TLR9, SEAP reporter, ODN2006 5 nM. In short, it runs like this: as §1

As usually defined, the IC50 is the concentration that inhibits the measured activity by half. High values mean weaker potency in that assay, low ones greater potency in that assay.

On to `CC(C)c1c(-c2ccnc3[nH]ncc23)[nH]c2ccc(C3CCN(C(=O)CN4CCN(c5ccncc5)CC4)CC3)cc12` [Example 591, 1-(4-(3-isopropyl-2-(1H-pyrazolo[3,4-b]pyridin-4-yl)-1H-indol-5-yl)piperidin-1-yl)-2-(4-(pyridin-4-yl)piperazin-1-yl)ethan-1-one], for which the IC50 against human TLR8 is < 100 nM; against human TLR7, < 100 nM; at human TLR9, 100 to 1000 nM.

Regarding `Cc1nc2cc(-c3[nH]c4ccc(C5CCN(CC(=O)N(C)C)CC5)cc4c3C(C)C)ccn2n1` [Example 326, 2-(4-(3-isopropyl-2-(2-methyl-[1,2,4]triazolo[1,5-a]pyridin-7-yl)-1H-indol-5-yl)piperidin-1-yl)-N,N-dimethylacetamide], the IC50 at human TLR8 is 100 to 1000 nM; against human TLR7 it was < 100 nM; at human TLR9, 1000 to 50000 nM.

Consider `CCc1c(-c2c[nH]c3ncncc23)[nH]c2ccc(C3CCNCC3)cc12` [Example 241, 5-(3-ethyl-5-(piperidin-4-yl)-1H-indol-2-yl)-7H-pyrrolo[2,3-d]pyrimidine], for which the IC50 is < 100 nM at human TLR8, < 100 nM on human TLR7 and 1000 to 50000 nM against human TLR9.

As to `Cc1cc(-c2[nH]c3ccc(C4CCNCC4)cc3c2C(C)C)cc2cn(C)nc12` [Example 138, 5-(3-isopropyl-5-(piperidin-4-yl)-1H-indol-2-yl)-2,7-dimethyl-2H-indazole], the results for the IC50 against human TLR8, at human TLR7 and against human TLR9 were < 100 nM, < 100 nM and 1000 to 50000 nM, respectively.

`CNCC(=O)N1CCC(c2ccc3[nH]c(-c4cn5ccnc5c(C)c4C)c(C(C)C)c3c2)CC1` [Example 548, 1-(4-(2-(7,8-dimethylimidazo[1,2-a]pyridin-6-yl)-3-isopropyl-1H-indol-5-yl)piperidin-1-yl)-2-(methylamino)ethan-1-one]: the IC50 against human TLR8 was 100 to 1000 nM; at human TLR7, < 100 nM; on human TLR9 it was 100 to 1000 nM.

In the case of `CCc1c(-c2ccnc3[nH]ncc23)[nH]c2ccc(C3CCN(Cc4cncs4)CC3)cc12` [Example 928, 5-((4-(3-ethyl-2-(1H-pyrazolo[3,4-b]pyridin-4-yl)-1H-indol-5-yl)piperidin-1-yl)methyl)thiazole], the half-inhibitory concentration (IC50) on human TLR8 was < 100 nM; at human TLR7, 100 to 1000 nM; at human TLR9, 1000 to 50000 nM.

Regarding `CCc1c(-c2ccnc3c(N)noc23)[nH]c2ccc(C3CCNCC3)cc12` [Example 239, 7-(3-ethyl-5-(piperidin-4-yl)-1H-indol-2-yl)isoxazolo[4,5-b]pyridin-3-amine], the values for the IC50 on human TLR8, against human TLR7 and against human TLR9 were 100 to 1000 nM, 1000 to 50000 nM and 100 to 1000 nM, respectively.

Regarding `Cc1cc(-c2[nH]c3ccc(C4CCNCC4)cc3c2C(C)C)cn2cc(C(=O)NCC(C)(C)O)nc12` [Example 270, N-(2-hydroxy-2-methylpropyl)-6-(3-isopropyl-5-(piperidin-4-yl)-1H-indol-2-yl)-8-methylimidazo[1,2-a]pyridine-2-carboxamide], the concentration for half-maximal inhibition (IC50) against human TLR8 lay within 100 to 1000 nM; against human TLR7, 100 to 1000 nM; against human TLR9, 1000 to 50000 nM.

Consider `Cc1cc(-c2[nH]c3ccc(C4CCN(C(=O)C[C@H](C)O)CC4)cc3c2C(C)C)cc2ncnn12` [Example 600, (S)-3-hydroxy-1-(4-(3-isopropyl-2-(5-methyl-[1,2,4]triazolo[1,5-a]pyridin-7-yl)-1H-indol-5-yl)piperidin-1-yl)butan-1-one], for which the IC50 against human TLR8 is 100 to 1000 nM; on human TLR7 it was < 100 nM; on human TLR9 it was 1000 to 50000 nM.

Turning to `Cc1nc2c(-c3[nH]c4ccc(C5CCN(C(=O)C[C@H](C)O)CC5)cc4c3C(C)C)ccc(C)n2n1` [Example 598, (S)-1-(4-(2-(2,5-dimethyl-[1,2,4]triazolo[1,5-a]pyridin-8-yl)-3-isopropyl-1H-indol-5-yl)piperidin-1-yl)-3-hydroxybutan-1-one], the values for the IC50 on human TLR8, on human TLR7 and against human TLR9 were 1000 to 50000 nM, > 3130 nM and > 50000 nM, respectively.

Consider `CC(C)c1c(-c2ccn3nncc3c2)[nH]c2ccc(C3CCN(C(=O)CN(C)C)CC3)cc12` [Example 465, 1-(4-(2-([1,2,3]triazolo [1,5-a]pyridin-5-yl)-3-isopropyl-1H-indol-5-yl)piperidin-1-yl)-2-(dimethylamino)ethan-1-one], for which the IC50 against human TLR8 is 100 to 1000 nM; at human TLR7, < 100 nM; on human TLR9 it was 1000 to 50000 nM.

Turning to `CC(C)c1c(-c2ccc3nnnn3c2)[nH]c2ccc(C3CCN(CC(=O)N(C)C)CC3)cc12` [Example 301, 2-(4-(3-isopropyl-2-(tetrazolo[1,5-a]pyridin-6-yl)-1H-indol-5-yl)piperidin-1-yl)-N,N-dimethylacetamide], the IC50 was 100 to 1000 nM on human TLR8, < 100 nM on human TLR7 and 1000 to 50000 nM against human TLR9.

On to `CC(C)c1c(-c2n[nH]c3ncccc23)[nH]c2ccc(C3CCNCC3)cc12` [Example 18, 3-(3-isopropyl-5-(piperidin-4-yl)-1H-indol-2-yl)-1H-pyrazolo[3,4-b]pyridine], for which the IC50 on human TLR8 was < 100 nM; against human TLR7, < 100 nM; against human TLR9 it was 1000 to 50000 nM.
